Each molecule was assayed on MRSA (assay: Activity against a strain of MRSA pathogen, relative to thienamycin). Details: relative to the effectiveness of thienamycin, arbitrarily assigned an effectiveness of 1.
Assay type: cell-based, methicillin resistant Staphylococcus aureus
Procedure: The activity of the following compounds was measured against a strain of MRSA pathogen and reported as relative to the effectiveness of thienamycin, which is arbitrarily assigned an effectiveness of 1. Regarding this measure of activity, reference is made to R. Guthikonda, et al., J. Med. Chem., 30, 871 (1987). [drawing 76]
In the case of `CC(O)C1C(=O)N2C(C(=O)O)=C(c3ccc(I)cc3)CC12` (stereo not drawn) [R^a1=H, R^a2=I, R^a3=H, reference compound], the “ANTI-INFECTIVE ACTIVITY MRSA” value is reported as 1.8. For `CC(O)C1C(=O)N2C(C(=O)O)=C(c3cc(I)cc(I)c3)CC12` [R^a1=I, R^a2=H, R^a3=I, sodium (5R,6S)-2-[(3,5-diiodo)phenyl]-6-[1R-1-hydroxyethyl]-carbapen-2-em-3-carboxylate], the “ANTI-INFECTIVE ACTIVITY MRSA” value was 88. With `CSc1cc(C=O)cc(C2=C(C(=O)O)N3C(=O)[C@H]([C@@H](C)O)[C@H]3C2)c1` [R^a1=SMe, R^a2=H, R^a3=HC=O] the “ANTI-INFECTIVE ACTIVITY MRSA” value was 61. With `CSc1cc(CO)cc(C2=C(C(=O)O)N3C(=O)[C@H]([C@@H](C)O)[C@H]3C2)c1` [R^a1=SMe, R^a2=H, R^a3=CH2OH] the “ANTI-INFECTIVE ACTIVITY MRSA” value was 3.2. In the case of `CC(O)C1C(=O)N2C(C(=O)O)=C(c3cc(Br)cc(C=O)c3)CC12` [R^a1=Br, R^a2=H, R^a3=HC=O, sodium (5R,6S)-2-[(3-aldehydo)-(5-bromo)phenyl]-6-[(1R)-1-hydroxyethyl]carbapen-2-em-3-carboxylate], the “ANTI-INFECTIVE ACTIVITY MRSA” value is reported as 219. With `CC(O)C1C(=O)N2C(C(=O)O)=C(c3cc(Br)cc(CO)c3)CC12` (stereo not drawn) [R^a1=Br, R^a2=H, R^a3=CH2OH, reference compound] the “ANTI-INFECTIVE ACTIVITY MRSA” value was 8.7. `CSc1cc(C2=C(C(=O)O)N3C(=O)[C@H]([C@@H](C)O)[C@H]3C2)cc([S+](C)[O-])c1` (stereo partly drawn) [R^a1=SMe, R^a2=H, R^a3=(S→O)Me, sodium (5R,6S)-2-[(3-methylsulfinyl)-(5-methylthio)phenyl]-6-[(1R)-hydroxyethyl]carbapen-2-em-3-carboxylate] was tested, and the “ANTI-INFECTIVE ACTIVITY MRSA” value was 6.1. `C[C@@H](O)[C@H]1C(=O)N2C(C(=O)O)=C(c3cc([S+](C)[O-])cc([S+](C)[O-])c3)C[C@H]12` (stereo partly drawn) [R^a1=(S→O)Me, R^a2=H, R^a3=(S→O)Me] was tested, and the “ANTI-INFECTIVE ACTIVITY MRSA” value was 1.2. For `CC(O)C1C(=O)N2C(C(=O)O)=C(c3cc(I)cc(S(C)(=O)=O)c3)CC12` (stereo not drawn) [R^a1=I, R^a2=H, R^a3=[drawing]], the “ANTI-INFECTIVE ACTIVITY MRSA” value was 63. For `CSc1cc(SC)cc(C2=C(C(=O)O)N3C(=O)C(C(C)O)C3C2)c1` (stereo not drawn) [R^a1=SMe, R^a2=H, R^a3=SMe], the “ANTI-INFECTIVE ACTIVITY MRSA” value was 28. In the case of `CC(O)C1C(=O)N2C(C(=O)O)=C(c3cccc(CO)c3)CC12` (stereo not drawn) [R^a1=H, R^a2=H, R^a3=CH2OH, reference compound], the “ANTI-INFECTIVE ACTIVITY MRSA” value is reported as 0.9. For `C[C@@H](O)[C@H]1C(=O)N2C(C(=O)O)=C(c3cc([S+](C)[O-])cc(S(C)(=O)=O)c3)C[C@H]12` (stereo partly drawn) [R^a1=(S→O)Me, R^a2=H, R^a3=[drawing]], the “ANTI-INFECTIVE ACTIVITY MRSA” value was 3.7. For `CC(O)C1C(=O)N2C(C(=O)O)=C(c3cccc(I)c3)CC12` (stereo not drawn) [R^a1=I, R^a2=H, R^a3=H, reference compound], the “ANTI-INFECTIVE ACTIVITY MRSA” value was 21. For `C[C@@H](O)[C@H]1C(=O)N2C(C(=O)O)=C(c3cc(S(C)(=O)=O)cc(S(C)(=O)=O)c3)C[C@H]12` [R^a1=[drawing], R^a2=H, R^a3=[drawing]], the “ANTI-INFECTIVE ACTIVITY MRSA” value was 12. For `CC(O)C1C(=O)N2C(C(=O)O)=C(c3ccc(C=O)cc3)CC12` (stereo not drawn) [R^a1=H, R^a2=HC=O, R^a3=H, reference compound], the “ANTI-INFECTIVE ACTIVITY MRSA” value was 2. For `CC(O)C1C(=O)N2C(C(=O)O)=C(c3cccc(C=O)c3)CC12` (stereo not drawn) [R^a1=H, R^a2=H, R^a3=HC=O, reference compound], the “ANTI-INFECTIVE ACTIVITY MRSA” value was 3.3. `CSc1cc(I)cc(C2=C(C(=O)O)N3C(=O)C(C(C)O)C3C2)c1` [R^a1=I, R^a2=H, R^a3=SMe, sodium (5R, 6S)-2-[(3-methylthio)-5-iodophenyl]-6-[(1R)-1-hydroxyethyl]carbapen-2-em-3-carboxylate] was tested, and the “ANTI-INFECTIVE ACTIVITY MRSA” value was 60. For `CC(O)C1C(=O)N2C(C(=O)O)=C(c3cc(I)cc([S+](C)[O-])c3)CC12` [R^a1=I, R^a2=H, R^a3=(S→O)Me, sodium (5R, 6S)-2-[(3-methylsulfinyl)-5-iodophenyl]-6-[(1R)-1-hydroxyethyl]carbapen-2-em-3-carboxylate], the “ANTI-INFECTIVE ACTIVITY MRSA” value was 63.

Reference: patent publication EP0538016A1, “MRSA active 2-phenyl-carbapenems” (MERCK & CO. INC., priority 1991, dated 1993)
